Columns and labels:
[1] = Inhibition of purified Hepatitis C virus NS5B; parameters: species or system Hepacivirus hominis
[2] = test system: Hepatitis C virus; assay: Antiviral activity against Hepatitis C virus genotype 1b by cell-based replicon assay; type: functional, Hepacivirus hominis
[3] = target: T1, Nuclear receptor subfamily 1 group I member 2 (Homo sapiens, UniProt O75469); assay: Activation of PXR (unknown origin) at 10 uM by reporter gene assay relative to rifampicin; type: ADME
T1 sequence (O75469 whole entry): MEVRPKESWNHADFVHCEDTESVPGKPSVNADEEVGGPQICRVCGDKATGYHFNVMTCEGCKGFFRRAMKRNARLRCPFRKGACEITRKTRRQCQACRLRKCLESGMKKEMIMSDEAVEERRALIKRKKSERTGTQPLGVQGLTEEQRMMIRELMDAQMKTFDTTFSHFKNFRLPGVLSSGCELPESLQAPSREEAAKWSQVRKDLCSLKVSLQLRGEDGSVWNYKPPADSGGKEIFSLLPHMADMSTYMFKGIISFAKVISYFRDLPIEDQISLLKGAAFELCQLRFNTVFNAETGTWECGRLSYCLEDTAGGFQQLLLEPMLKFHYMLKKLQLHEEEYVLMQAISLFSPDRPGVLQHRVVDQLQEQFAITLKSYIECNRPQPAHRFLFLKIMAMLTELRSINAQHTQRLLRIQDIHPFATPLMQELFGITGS

[4] = target: Cytochrome P450 3A4 (Homo sapiens, UniProt P08684); assay: Increase in CYP3A4-mediated testosterone metabolism in human hepatocytes at 10 uM relative to rifampicin; type: ADME, cell-based, Hepatocyte
Chain of Cytochrome P450 3A4 (P08684 whole entry): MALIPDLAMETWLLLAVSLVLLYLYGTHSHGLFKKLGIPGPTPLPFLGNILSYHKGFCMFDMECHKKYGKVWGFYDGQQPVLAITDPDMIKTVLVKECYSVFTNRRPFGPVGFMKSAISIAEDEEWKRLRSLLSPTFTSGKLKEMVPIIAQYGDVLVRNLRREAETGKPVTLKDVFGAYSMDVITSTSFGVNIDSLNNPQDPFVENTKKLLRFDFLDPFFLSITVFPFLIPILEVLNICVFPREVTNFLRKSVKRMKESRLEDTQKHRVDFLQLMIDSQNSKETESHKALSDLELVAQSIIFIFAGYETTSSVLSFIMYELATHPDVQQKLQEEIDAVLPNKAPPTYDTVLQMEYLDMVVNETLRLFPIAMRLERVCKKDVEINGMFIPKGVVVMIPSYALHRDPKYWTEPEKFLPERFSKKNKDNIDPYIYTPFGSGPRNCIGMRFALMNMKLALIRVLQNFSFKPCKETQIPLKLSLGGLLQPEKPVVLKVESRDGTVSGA

[5] = test system: Hepatocyte; assay: Increase in CYP3A4 mRNA expression in human hepatocytes at 10 uM relative to rifampicin; type: ADME, cell-based
[6] = Volume of distribution at steady state in beagle dog at 0.3 mg/kg, iv; type: ADME, organism-based, Canis lupus familiaris; parameters: dose 0.3 mg/kg, route intravenous; conditions: in vivo, read-out: Vdss
[7] = Half life in beagle dog at 0.3 mg/kg, iv; type: ADME, organism-based, Canis lupus familiaris; parameters: dose 0.3 mg/kg, route intravenous; conditions: in vivo
[8] = AUC in beagle dog at 3 mg/kg, po; type: ADME, organism-based, Canis lupus familiaris; parameters: dose 3 mg/kg, route oral; conditions: plasma
[9] = Oral bioavailability in beagle dog at 3 mg/kg; type: ADME, organism-based, Canis lupus familiaris; conditions: in vivo
[10] = test system: Hepatitis C virus; assay: Antiviral activity against Hepatitis C virus genotype 1b by cell-based replicon assay in presence of 40 % human serum
[11] = test system: Hepatitis C virus; assay: Antiviral activity against Hepatitis C virus genotype 1a by cell-based replicon assay; conditions: subtype 1a
[12] = AUC in Sprague-Dawley rat at 1 mg/kg, iv; type: ADME, organism-based; parameters: dose 1 mg/kg, route intravenous; conditions: plasma
[13] = Clearance in Sprague-Dawley rat at 1 mg/kg, iv; type: ADME, organism-based; parameters: dose 1 mg/kg, route intravenous; conditions: in vivo
[14] = Volume of distribution at steady state in Sprague-Dawley rat at 1 mg/kg, iv; type: ADME, organism-based; parameters: dose 1 mg/kg, route intravenous; conditions: in vivo, read-out: Vdss
[15] = Half life in Sprague-Dawley rat at 1 mg/kg, iv; type: ADME, organism-based; parameters: dose 1 mg/kg, route intravenous; conditions: in vivo
[16] = AUC in Sprague-Dawley rat at 5 mg/kg, po; type: ADME, organism-based; parameters: dose 5 mg/kg, route oral; conditions: plasma
[17] = Oral bioavailability in Sprague-Dawley rat at 5 mg/kg; type: ADME, organism-based; conditions: in vivo
[18] = AUC in beagle dog at 0.3 mg/kg, iv; type: ADME, organism-based, Canis lupus familiaris; parameters: dose 0.3 mg/kg, route intravenous; conditions: plasma
[19] = Clearance in beagle dog at 0.3 mg/kg, iv; type: ADME, organism-based, Canis lupus familiaris; parameters: dose 0.3 mg/kg, route intravenous; conditions: in vivo

| Compound | IC50 [1] [nM] | EC50 [2] [nM] | Activity [3] [%] | other results |
| --- | --- | --- | --- | --- |
| Cc1ccc(C2CCCCC2)n1-c1cc(-c2ccccc2)sc1C(=O)O | 10500 | > 33000 | – | – |
| C[C@H]1CC[C@H](C2CCCC(=O)N2c2cc(-c3ccccc3)sc2C(=O)O)CC1 (some centres not stated) | 740 | 11600 | – | – |
| O=C(O)c1sc(-c2ccccc2)cc1N1C(=O)CCCC1C1CCOCC1 (configuration not stated) | > 10000 | > 33000 | – | – |
| O=C(O)c1sc(-c2ccccc2)cc1N1C(=O)CCC1C1CCCCC1 (configuration not stated) | 180 | 640 | – | – |
| O=C(O)c1sc(-c2ccccc2)cc1N1C(=O)CC[C@@H]1C1CCCCC1 | > 10000 | > 33000 | – | – |
| CC(C)(C)C#Cc1cc(N2C(=O)CCC[C@H]2C2CCCCC2)c(C(=O)O)s1 | 10 | 12 | 141 | – |
| CC(C)(C)C#Cc1cc(N2C(=O)COC[C@H]2C2CCCCC2)c(C(=O)O)s1 | 3 | 17 | 87 | Activity [4]: 61%; Activity [5]: 66% |
| CC(C)(C)C#Cc1cc(N2C(=O)C(C)(C)OC[C@H]2C2CCCCC2)c(C(=O)O)s1 | 2 | 5 | 145 | – |
| CC(C)(C)C#Cc1cc(N2C(=O)[C@H](CCCO)OC[C@H]2C2CCCCC2)c(C(=O)O)s1 | 35 | 83 | – | – |
| C[C@@H](O)C[C@H]1OC[C@@H](C2CCCCC2)N(c2cc(C#CC(C)(C)C)sc2C(=O)O)C1=O | 3 | 8 | 9 | Vd [6]: 0.7 L/kg; half-life [7]: 5 h; AUC [8]: 6.3 µM·h; bioavailability [9]: 43%; EC50 [10]: 44 nM; EC50 [11]: 11 nM; Activity [4]: 2%; AUC [12]: 2.76 µM·h; clearance [13]: 14 mL/min/kg; Vd [14]: 3 L/kg; half-life [15]: 5.2 h; AUC [16]: 10.6 µM·h; bioavailability [17]: 77%; AUC [18]: 1.45 µM·h; clearance [19]: 7.7 mL/min/kg |
| C[C@H](O)C[C@H]1OC[C@@H](C2CCCCC2)N(c2cc(C#CC(C)(C)C)sc2C(=O)O)C1=O | 2 | 30 | 4 | – |
| CC(C)N(c1cc(-c2ccccc2)sc1C(=O)O)C(=O)[C@H]1CC[C@H](C)CC1 | 60 | 270 | – | – |
| CC(C)(C)C#Cc1cc(N2C(=O)[C@@H](CCO)OC[C@H]2C2CCCCC2)c(C(=O)O)s1 (relative stereo) | 2 | 7 | 3 | Vd [6]: 0.3 L/kg; half-life [7]: 3.8 h; AUC [8]: 5.68 µM·h; bioavailability [9]: 27%; Activity [4]: 5%; AUC [12]: 1.42 µM·h; clearance [13]: 27 mL/min/kg; Vd [14]: 2.1 L/kg; half-life [15]: 2 h; AUC [16]: 3.37 µM·h; bioavailability [17]: 48%; AUC [18]: 2.08 µM·h; clearance [19]: 5.6 mL/min/kg |
| CC(C)(C)C#Cc1cc(N2C(=O)[C@H](CCO)OC[C@H]2C2CCCCC2)c(C(=O)O)s1 (relative stereo) | 12 | 66 | – | – |
| CC(C)(C)C#Cc1cc(N2C(=O)[C@](C)(CCO)OC[C@H]2C2CCCCC2)c(C(=O)O)s1 (relative stereo) | 6 | 20 | 29 | – |
| CC(C)(C)C#Cc1cc(N2C(=O)[C@@H](CCCO)OC[C@H]2C2CCCCC2)c(C(=O)O)s1 (relative stereo) | 2 | 14 | 5 | Vd [6]: 0.1 L/kg; half-life [7]: 2.4 h; AUC [8]: 2.92 µM·h; bioavailability [9]: 12%; Activity [4]: 2%; AUC [12]: 0.984 µM·h; clearance [13]: 38 mL/min/kg; Vd [14]: 1.2 L/kg; half-life [15]: 1.1 h; AUC [16]: 2.11 µM·h; bioavailability [17]: 43%; AUC [18]: 2.34 µM·h; clearance [19]: 5.4 mL/min/kg |
| CC(C)(C)C#Cc1cc(N2C(=O)[C@](C)(CCCO)OC[C@H]2C2CCCCC2)c(C(=O)O)s1 (relative stereo) | 4 | 25 | 8 | – |

Further lines, with some results ahead:

| IC50 [1] [nM] | EC50 [2] [nM] | Activity [3] [%] | Compound | other results |
| --- | --- | --- | --- | --- |
| 1500 | > 33000 | – | Cc1ccc([C@H]2CC[C@H](C)CC2)n1-c1cc(-c2ccccc2)sc1C(=O)O | – |
| 73 | 330 | – | O=C(O)c1sc(-c2ccccc2)cc1N1C(=O)CCCC1C1CCCCC1 (configuration not stated) | – |
| 720 | 3700 | – | O=C(O)c1sc(-c2ccccc2)cc1N1C(=O)CCCC1C1CCCC1 (configuration not stated) | – |
| 870 | 5800 | – | O=C(O)c1sc(-c2ccccc2)cc1N1C(=O)CCCC1c1ccccc1 (configuration not stated) | – |
| 120 | 390 | – | O=C(O)c1sc(-c2ccccc2)cc1N1C(=O)CC[C@H]1C1CCCCC1 | – |
| 2 | 3 | 77 | CC(C)(C)C#Cc1cc(N2C(=O)[C@@](C)(CCO)OC[C@H]2C2CCCCC2)c(C(=O)O)s1 (relative stereo) | – |
| 2 | 11 | 34 | CC(C)(C)C#Cc1cc(N2C(=O)[C@@](C)(CCCO)OC[C@H]2C2CCCCC2)c(C(=O)O)s1 (relative stereo) | – |

From ChEMBL document CHEMBL3351832, “Design and synthesis of lactam-thiophene carboxylic acids as potent hepatitis C virus polymerase inhibitors” (Bioorg Med Chem Lett, 2014)
